Consider 14 compounds from PubChem BioAssay (NCI).

SMILES strings stand for the structures.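 Each compound was tested at five concentrations against cells in 96-well plates for 48 hours. GI50 = concentration required for 50% inhibition of growth. TGI denotes the concentration required for complete inhibition of growth.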

Test systems include A549 NSCLC; OVCAR-8 ovarian; NCI-H522 lung; SNB-75 CNS; OVCAR-3 ovarian; EKVX NSCLC; TK-10 renal; SN12C renal; ACHN renal.
Common to all, as to test: inhibition of tumour cell growth, NCI panel, 48 h

For `COc1cc2c3c(c1OC)-c1ccccc1C(C(OC(C)=O)c1ccccc1)C3N(C)CC2` (stereo unspecified), the TGI in the experiment with A549 NSCLC, in the experiment on OVCAR-8 ovarian, in the experiment with NCI-H522 lung, with SNB-75 CNS, in the experiment with OVCAR-3 ovarian and with EKVX NSCLC was above 100 µM each time. For the same compound, the TGI in the experiment on TK-10 renal, with SN12C renal and with ACHN renal was above 100 µM in each case.
With `Cn1c(=O)c2c3oc(=O)cc(O)c3c(=O)n3c4ccccc4n(c1=O)c23`, the TGI in the experiment with A549 NSCLC is above 100 µM; in the experiment with OVCAR-8 ovarian, above 100 µM; with SNB-75 CNS it was 87.8 µM; with OVCAR-3 ovarian, 78.6 µM; in the experiment on EKVX NSCLC, above 100 µM; in the experiment on TK-10 renal, above 100 µM. Moreover, the TGI in the experiment with SN12C renal and in the experiment with ACHN renal was above 100 µM each time.
For `COC(=O)C(CC=O)C(=O)C(=O)Nc1cccc(C(F)(F)F)c1` (stereo unspecified), the TGI with A549 NSCLC, with OVCAR-8 ovarian, in the experiment on NCI-H522 lung, with OVCAR-3 ovarian, in the experiment with EKVX NSCLC and in the experiment on TK-10 renal was above 100 µM each time. The TGI in the experiment with SN12C renal and in the experiment with ACHN renal was above 100 µM in each case.
On to `Oc1cc2cc(-c3ccccc3)[nH]c2c2ccccc12`, for which the TGI in the experiment on A549 NSCLC was above 100 µM; with OVCAR-8 ovarian, above 100 µM; with NCI-H522 lung it was 37.4 µM; in the experiment on SNB-75 CNS, above 100 µM; in the experiment with OVCAR-3 ovarian, above 61.4 µM; in the experiment with EKVX NSCLC it was above 100 µM. For the same compound, the TGI in the experiment with TK-10 renal was above 100 µM; with SN12C renal it was above 92.9 µM; in the experiment with ACHN renal it was above 88.3 µM.
For the compound `CC(=O)[CH-]C(=O)c1ccccc1.CC(=O)[CH-]C(=O)c1ccccc1.[O]=[U+2]=[O]`, the GI50 was 31 µM with A549 NSCLC; 35 µM in the experiment on OVCAR-8 ovarian; 65.2 µM in the experiment on NCI-H522 lung; 23 µM in the experiment with SNB-75 CNS; 88.2 µM with OVCAR-3 ovarian; 32.8 µM with EKVX NSCLC. Moreover, the GI50 is 37.8 µM with TK-10 renal, 56 µM in the experiment with SN12C renal and 33.6 µM in the experiment on ACHN renal. Moreover, the TGI is above 100 µM in the experiment with A549 NSCLC; above 100 µM with OVCAR-8 ovarian; above 100 µM in the experiment on NCI-H522 lung; 98.7 µM with SNB-75 CNS; above 100 µM in the experiment with OVCAR-3 ovarian; above 100 µM in the experiment on EKVX NSCLC. Also, the TGI in the experiment on TK-10 renal, with SN12C renal and with ACHN renal was above 100 µM throughout.
Consider `COc1ccc([Se]c2ccc(OC)cc2OC)c(OC)c1`, for which the TGI in the experiment on A549 NSCLC was above 100 µM; in the experiment on OVCAR-8 ovarian, above 100 µM; in the experiment with NCI-H522 lung, 38.2 µM; with SNB-75 CNS it was 36.9 µM; in the experiment on OVCAR-3 ovarian, above 100 µM; in the experiment on TK-10 renal it was above 100 µM. Besides, the TGI with SN12C renal and in the experiment with ACHN renal was above 100 µM in each case.
For `O=c1c2ccccc2nc(-c2ccccc2)n1NCC1(O)OCC(O)C(O)C1O` (stereo unspecified), the TGI in the experiment with A549 NSCLC, in the experiment on OVCAR-8 ovarian, in the experiment on NCI-H522 lung, with SNB-75 CNS, with OVCAR-3 ovarian and in the experiment with EKVX NSCLC was above 100 µM in each case. For the same compound, the TGI in the experiment with TK-10 renal, in the experiment with SN12C renal and with ACHN renal was above 100 µM in each case.
For the compound `CC(=O)NC1C(OCc2ccccc2)OC(COC(=O)CCCCCCCCCCNC(=O)c2cccc3c(=O)c4ccccc4[nH]c23)C(O)C1OC(C)C(=O)NC(C)C(=O)NC(CCC(N)=O)C(N)=O` (stereo unspecified), the TGI in the experiment on A549 NSCLC, in the experiment with OVCAR-8 ovarian, in the experiment with NCI-H522 lung, in the experiment with SNB-75 CNS, in the experiment with OVCAR-3 ovarian and with EKVX NSCLC was above 100 µM in each case. The TGI with TK-10 renal, with SN12C renal and with ACHN renal was above 100 µM each time.
Take `CC1OC(=O)N(CCCC=C2SCCCS2)C1=O` (stereo unspecified): the TGI in the experiment on A549 NSCLC, in the experiment on OVCAR-8 ovarian, with NCI-H522 lung, in the experiment with SNB-75 CNS, in the experiment with OVCAR-3 ovarian and in the experiment with EKVX NSCLC was above 100 µM in each case. Also, the TGI in the experiment on TK-10 renal, in the experiment with SN12C renal and with ACHN renal was above 100 µM each time.
On to `O=C(CCCCCCCCC(=O)OCC1OC(n2cnc3c(=O)[nH]cnc32)C(O)C1O)OCC1OC(n2cnc3c(=O)[nH]cnc32)C(O)C1O` (stereo unspecified), for which the TGI in the experiment on A549 NSCLC, in the experiment on OVCAR-8 ovarian, with NCI-H522 lung, with SNB-75 CNS, in the experiment with OVCAR-3 ovarian and with EKVX NSCLC was above 100 µM in each case. In addition, the TGI in the experiment with TK-10 renal, in the experiment with SN12C renal and with ACHN renal was above 100 µM throughout.
Regarding `Cc1nnc2n1N=C(CC(=O)c1ccc(O)cc1O)CN2N`, the TGI in the experiment with A549 NSCLC, in the experiment with EKVX NSCLC, with TK-10 renal, in the experiment with SN12C renal and in the experiment with ACHN renal was above 100 µM throughout.
With `COC(=O)/C(C#N)=C1\N=NNN1CCCN1CCOCC1`, the TGI in the experiment with A549 NSCLC, with OVCAR-8 ovarian, in the experiment with NCI-H522 lung, with SNB-75 CNS, in the experiment with OVCAR-3 ovarian and with EKVX NSCLC was above 100 µM throughout. For the same compound, the TGI in the experiment on TK-10 renal, in the experiment with SN12C renal and with ACHN renal was above 100 µM throughout.
With `CC1=C(C#N)C(N)=C2C(C)=C(C#N)C(N)=C12`, the TGI in the experiment with A549 NSCLC, in the experiment on OVCAR-8 ovarian, in the experiment on NCI-H522 lung, in the experiment on SNB-75 CNS, in the experiment with OVCAR-3 ovarian and with EKVX NSCLC was above 100 µM each time. Also, the TGI in the experiment with TK-10 renal and with SN12C renal was above 100 µM each time.
`C/C(=N\NS(=O)(=O)c1ccc(C)cc1)c1ccc[n+]([O-])n1`: the TGI with A549 NSCLC, in the experiment with OVCAR-8 ovarian, in the experiment on NCI-H522 lung, in the experiment on SNB-75 CNS, in the experiment with OVCAR-3 ovarian and in the experiment on EKVX NSCLC was above 100 µM each time. Moreover, the TGI in the experiment with SN12C renal and in the experiment on ACHN renal was above 100 µM throughout.
